According to patent publication US7879838B2, “Heteroaryl substituted pyrazinyl-piperazine-piperidines with CXCR3 antagonist activity” (Schering Corporation, priority 2005, dated 2011):

Biological target: T1, Human CXCR3 (N-delta 4) (Homo sapiens, UniProt P49682)
T1 construct: CD8 leader (N); Flag tag; expressed in transfected cells; membranes prepared
T1 sequence (P49682 5-368 limits assumed): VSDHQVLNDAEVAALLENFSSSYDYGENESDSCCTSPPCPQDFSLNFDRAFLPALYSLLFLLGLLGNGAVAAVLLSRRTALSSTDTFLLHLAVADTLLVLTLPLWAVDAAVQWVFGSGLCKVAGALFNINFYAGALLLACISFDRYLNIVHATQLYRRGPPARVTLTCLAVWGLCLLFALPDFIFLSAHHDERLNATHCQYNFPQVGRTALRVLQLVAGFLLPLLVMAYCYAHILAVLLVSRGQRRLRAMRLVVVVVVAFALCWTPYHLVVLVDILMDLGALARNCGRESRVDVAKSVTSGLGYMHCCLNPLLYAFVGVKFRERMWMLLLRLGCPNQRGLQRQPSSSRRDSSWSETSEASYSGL
Assay: Human CXCR3 (N-delta 4) scintillation proximity assay (SPA), [125I] IP-10 binding to Ba/F3-hCXCR3 membranes
Conditions: IC50 rating; 25 pM [125I] IP-10, membranes of Ba/F3 cells expressing human CXCR3 (N-delta 4)
Summary of the method: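 Membranes from Ba/F3 pro-B cells stably expressing Flag-tagged hCXCR3 (N-delta 4), 2 μg per point, prebound 1 hr to WGA SPA beads in HEPES buffer with CaCl2, MgCl2, NaCl, 1.0% BSA. Competition with 25 pM [125I] IP-10 and titrated compounds, 3 hr at room temperature; bound radioligand counted; […].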

CC[C@H]1CN(c2nc(N)c(C(N)=O)nc2Cl)CCN1C1CCN(C2OC(C(=O)N(C)C)c3cc(Cl)ccc32)CC1 (some centres unmarked) [compound 151]
IC50: 0.025 to 0.1 µM

CC[C@H]1CN(c2nc(N)c(C(N)=O)nc2Cl)CCN1C1CCN(C(=O)c2ccc(Cl)c3cc[nH]c23)CC1 [compound 152]
IC50: > 0.1 µM

CC[C@H]1CN(c2nc(N)c(C(N)=O)nc2Cl)CCN1C1CCN(Cc2ccc(Cl)c3nn[nH]c23)CC1 [compound 153]
IC50: > 0.1 µM

CC[C@H]1CN(c2ncc(C(=O)NC3CC3)nc2C)[C@H](C)CN1C1CCN(C(=O)c2ccc(Cl)nc2N)CC1 [compound 159]
IC50: < 0.025 µM

CCNC(=O)c1cnc(N2C[C@H](CC)N(C3CCN(C(=O)c4ccc(Cl)nc4N)CC3)C[C@H]2C)c(C)n1 [compound 160]
IC50: < 0.025 µM

CC[C@H]1CN(c2ncc(C(=O)OC)nc2C)CCN1C1CCN(C(=O)c2ccc(Cl)nc2N)CC1 [compound 161]
IC50: < 0.025 µM

CC[C@H]1CN(c2nc(N)c(C(N)=O)nc2C)CCN1C1CCN(C(=O)c2ccc(Cl)nc2N)CC1 [compound 162]
IC50: < 0.025 µM

CC[C@H]1CN(c2ncc(C(=O)NC)nc2C)[C@H](C)CN1C1CCN(C(=O)c2ccc(Cl)nc2N)CC1 [compound 163]
IC50: < 0.025 µM

CC[C@H]1CN(c2ncc(C(=O)OC)nc2C)[C@H](C)CN1C1CCN(C(=O)c2ccc(Cl)nc2N)CC1 [compound 164]
IC50: < 0.025 µM

CC[C@H]1CN(c2ncc(C(N)=O)nc2C)CCN1C1CCN(C(=O)c2ccc(C(F)(F)F)nc2N)CC1 [compound 165]
IC50: 0.025 to 0.1 µM

CC[C@H]1CN(c2nc(N)c(C(N)=O)nc2Cl)[C@H](C)CN1C1CCN(C(=O)c2ccc(Cl)nc2N)CC1 [compound 167]
IC50: < 0.025 µM

CC[C@H]1CN(c2ncc(C(=O)NC(C)(C)C)nc2C)CCN1C1CCN(C(=O)c2ccc(Cl)nc2N)CC1 [compound 170]
IC50: < 0.025 µM

CC[C@H]1CN(c2nc(N)c(C(=O)NCCO)nc2C)CCN1C1CCN(C(=O)c2ccc(Cl)nc2N)CC1 [compound 171]
IC50: < 0.025 µM

CC[C@H]1CN(c2nc(N)c(C(=O)OC)nc2Cl)[C@H](C)CN1C1CCN(C(=O)c2ccc(Cl)nc2N)CC1 [compound 172]
IC50: < 0.025 µM

CC[C@H]1CN(c2ncc(C(=O)NC)nc2C(F)(F)F)CCN1C1CCN(C(=O)c2ccc(Cl)nc2N)CC1 [compound 173]
IC50: < 0.025 µM

CC[C@H]1CN(c2ncc(C(=O)NC3(C)CC3)nc2C)[C@H](C)CN1C1CCN(C(=O)c2ccc(Cl)nc2N)CC1 [compound 174]
IC50: < 0.025 µM

CC[C@H]1CN(c2nc(N)c(C(=O)NC3CC3)nc2C)[C@H](C)CN1C1CCN(C(=O)c2ccc(Cl)nc2N)CC1 [compound 175]
IC50: < 0.025 µM

CC[C@H]1CN(c2ncc(C(=O)NC3CC3)nc2C)CCN1C1CCN(C(=O)c2ccc(C(F)(F)F)nc2N)CC1 [compound 176]
IC50: < 0.025 µM

CC[C@H]1CN(c2nc(N)c(C(=O)NC3CC3)nc2Cl)[C@H](C)CN1C1CCN(C(=O)c2ccc(Cl)nc2N)CC1 [compound 177]
IC50: < 0.025 µM

CC[C@H]1CN(c2ncc(C(=O)NC3CC3)nc2C(F)(F)F)CCN1C1CCN(C(=O)c2ccc(Cl)nc2N)CC1 [compound 178]
IC50: < 0.025 µM

CC[C@H]1CN(c2ncc(C(=O)NC(C)C)nc2C(F)(F)F)CCN1C1CCN(C(=O)c2ccc(Cl)nc2N)CC1 [compound 179]
IC50: < 0.025 µM

CC[C@H]1CN(c2ncc(C(=O)NCCO)nc2C(F)(F)F)CCN1C1CCN(C(=O)c2ccc(Cl)nc2N)CC1 [compound 180]
IC50: < 0.025 µM

CC[C@H]1CN(c2ncc(C(=O)NC3CCC3)nc2C(F)(F)F)CCN1C1CCN(C(=O)c2ccc(Cl)nc2N)CC1 [compound 181]
IC50: < 0.025 µM
